According to publication PMC7000700, “RyR1-targeted drug discovery pipeline integrating FRET-based high-throughput screening and human myofiber dynamic Ca^2+ assays” (Scientific Reports, 2020):
Where two headings read alike, the source gives them in different places.

Columns and labels:
[1] = tested on: RyR1 Ca^2+ leak in human skinned skeletal muscle fibers; test: t-system Ca2+ readout of RyR1 Ca2+ leak in human mechanically skinned skeletal muscle fibers; conditions: for Reduction of RyR1 Ca2+ leak: at identified compound concentrations that only slightly affected Ca2+ release in EC coupling
RyR1 [2] = target: T1, RyR1 (Sus scrofa, UniProt P16960); parameters: RyR1 in skeletal SR membranes; from tissue; host or cells: porcine longissimus dorsi muscle (heavy SR vesicles); method as in PMID 27760856; conditions: NIH Clinical Collection screen; cited from earlier work
T1 sequence (P16960 whole entry): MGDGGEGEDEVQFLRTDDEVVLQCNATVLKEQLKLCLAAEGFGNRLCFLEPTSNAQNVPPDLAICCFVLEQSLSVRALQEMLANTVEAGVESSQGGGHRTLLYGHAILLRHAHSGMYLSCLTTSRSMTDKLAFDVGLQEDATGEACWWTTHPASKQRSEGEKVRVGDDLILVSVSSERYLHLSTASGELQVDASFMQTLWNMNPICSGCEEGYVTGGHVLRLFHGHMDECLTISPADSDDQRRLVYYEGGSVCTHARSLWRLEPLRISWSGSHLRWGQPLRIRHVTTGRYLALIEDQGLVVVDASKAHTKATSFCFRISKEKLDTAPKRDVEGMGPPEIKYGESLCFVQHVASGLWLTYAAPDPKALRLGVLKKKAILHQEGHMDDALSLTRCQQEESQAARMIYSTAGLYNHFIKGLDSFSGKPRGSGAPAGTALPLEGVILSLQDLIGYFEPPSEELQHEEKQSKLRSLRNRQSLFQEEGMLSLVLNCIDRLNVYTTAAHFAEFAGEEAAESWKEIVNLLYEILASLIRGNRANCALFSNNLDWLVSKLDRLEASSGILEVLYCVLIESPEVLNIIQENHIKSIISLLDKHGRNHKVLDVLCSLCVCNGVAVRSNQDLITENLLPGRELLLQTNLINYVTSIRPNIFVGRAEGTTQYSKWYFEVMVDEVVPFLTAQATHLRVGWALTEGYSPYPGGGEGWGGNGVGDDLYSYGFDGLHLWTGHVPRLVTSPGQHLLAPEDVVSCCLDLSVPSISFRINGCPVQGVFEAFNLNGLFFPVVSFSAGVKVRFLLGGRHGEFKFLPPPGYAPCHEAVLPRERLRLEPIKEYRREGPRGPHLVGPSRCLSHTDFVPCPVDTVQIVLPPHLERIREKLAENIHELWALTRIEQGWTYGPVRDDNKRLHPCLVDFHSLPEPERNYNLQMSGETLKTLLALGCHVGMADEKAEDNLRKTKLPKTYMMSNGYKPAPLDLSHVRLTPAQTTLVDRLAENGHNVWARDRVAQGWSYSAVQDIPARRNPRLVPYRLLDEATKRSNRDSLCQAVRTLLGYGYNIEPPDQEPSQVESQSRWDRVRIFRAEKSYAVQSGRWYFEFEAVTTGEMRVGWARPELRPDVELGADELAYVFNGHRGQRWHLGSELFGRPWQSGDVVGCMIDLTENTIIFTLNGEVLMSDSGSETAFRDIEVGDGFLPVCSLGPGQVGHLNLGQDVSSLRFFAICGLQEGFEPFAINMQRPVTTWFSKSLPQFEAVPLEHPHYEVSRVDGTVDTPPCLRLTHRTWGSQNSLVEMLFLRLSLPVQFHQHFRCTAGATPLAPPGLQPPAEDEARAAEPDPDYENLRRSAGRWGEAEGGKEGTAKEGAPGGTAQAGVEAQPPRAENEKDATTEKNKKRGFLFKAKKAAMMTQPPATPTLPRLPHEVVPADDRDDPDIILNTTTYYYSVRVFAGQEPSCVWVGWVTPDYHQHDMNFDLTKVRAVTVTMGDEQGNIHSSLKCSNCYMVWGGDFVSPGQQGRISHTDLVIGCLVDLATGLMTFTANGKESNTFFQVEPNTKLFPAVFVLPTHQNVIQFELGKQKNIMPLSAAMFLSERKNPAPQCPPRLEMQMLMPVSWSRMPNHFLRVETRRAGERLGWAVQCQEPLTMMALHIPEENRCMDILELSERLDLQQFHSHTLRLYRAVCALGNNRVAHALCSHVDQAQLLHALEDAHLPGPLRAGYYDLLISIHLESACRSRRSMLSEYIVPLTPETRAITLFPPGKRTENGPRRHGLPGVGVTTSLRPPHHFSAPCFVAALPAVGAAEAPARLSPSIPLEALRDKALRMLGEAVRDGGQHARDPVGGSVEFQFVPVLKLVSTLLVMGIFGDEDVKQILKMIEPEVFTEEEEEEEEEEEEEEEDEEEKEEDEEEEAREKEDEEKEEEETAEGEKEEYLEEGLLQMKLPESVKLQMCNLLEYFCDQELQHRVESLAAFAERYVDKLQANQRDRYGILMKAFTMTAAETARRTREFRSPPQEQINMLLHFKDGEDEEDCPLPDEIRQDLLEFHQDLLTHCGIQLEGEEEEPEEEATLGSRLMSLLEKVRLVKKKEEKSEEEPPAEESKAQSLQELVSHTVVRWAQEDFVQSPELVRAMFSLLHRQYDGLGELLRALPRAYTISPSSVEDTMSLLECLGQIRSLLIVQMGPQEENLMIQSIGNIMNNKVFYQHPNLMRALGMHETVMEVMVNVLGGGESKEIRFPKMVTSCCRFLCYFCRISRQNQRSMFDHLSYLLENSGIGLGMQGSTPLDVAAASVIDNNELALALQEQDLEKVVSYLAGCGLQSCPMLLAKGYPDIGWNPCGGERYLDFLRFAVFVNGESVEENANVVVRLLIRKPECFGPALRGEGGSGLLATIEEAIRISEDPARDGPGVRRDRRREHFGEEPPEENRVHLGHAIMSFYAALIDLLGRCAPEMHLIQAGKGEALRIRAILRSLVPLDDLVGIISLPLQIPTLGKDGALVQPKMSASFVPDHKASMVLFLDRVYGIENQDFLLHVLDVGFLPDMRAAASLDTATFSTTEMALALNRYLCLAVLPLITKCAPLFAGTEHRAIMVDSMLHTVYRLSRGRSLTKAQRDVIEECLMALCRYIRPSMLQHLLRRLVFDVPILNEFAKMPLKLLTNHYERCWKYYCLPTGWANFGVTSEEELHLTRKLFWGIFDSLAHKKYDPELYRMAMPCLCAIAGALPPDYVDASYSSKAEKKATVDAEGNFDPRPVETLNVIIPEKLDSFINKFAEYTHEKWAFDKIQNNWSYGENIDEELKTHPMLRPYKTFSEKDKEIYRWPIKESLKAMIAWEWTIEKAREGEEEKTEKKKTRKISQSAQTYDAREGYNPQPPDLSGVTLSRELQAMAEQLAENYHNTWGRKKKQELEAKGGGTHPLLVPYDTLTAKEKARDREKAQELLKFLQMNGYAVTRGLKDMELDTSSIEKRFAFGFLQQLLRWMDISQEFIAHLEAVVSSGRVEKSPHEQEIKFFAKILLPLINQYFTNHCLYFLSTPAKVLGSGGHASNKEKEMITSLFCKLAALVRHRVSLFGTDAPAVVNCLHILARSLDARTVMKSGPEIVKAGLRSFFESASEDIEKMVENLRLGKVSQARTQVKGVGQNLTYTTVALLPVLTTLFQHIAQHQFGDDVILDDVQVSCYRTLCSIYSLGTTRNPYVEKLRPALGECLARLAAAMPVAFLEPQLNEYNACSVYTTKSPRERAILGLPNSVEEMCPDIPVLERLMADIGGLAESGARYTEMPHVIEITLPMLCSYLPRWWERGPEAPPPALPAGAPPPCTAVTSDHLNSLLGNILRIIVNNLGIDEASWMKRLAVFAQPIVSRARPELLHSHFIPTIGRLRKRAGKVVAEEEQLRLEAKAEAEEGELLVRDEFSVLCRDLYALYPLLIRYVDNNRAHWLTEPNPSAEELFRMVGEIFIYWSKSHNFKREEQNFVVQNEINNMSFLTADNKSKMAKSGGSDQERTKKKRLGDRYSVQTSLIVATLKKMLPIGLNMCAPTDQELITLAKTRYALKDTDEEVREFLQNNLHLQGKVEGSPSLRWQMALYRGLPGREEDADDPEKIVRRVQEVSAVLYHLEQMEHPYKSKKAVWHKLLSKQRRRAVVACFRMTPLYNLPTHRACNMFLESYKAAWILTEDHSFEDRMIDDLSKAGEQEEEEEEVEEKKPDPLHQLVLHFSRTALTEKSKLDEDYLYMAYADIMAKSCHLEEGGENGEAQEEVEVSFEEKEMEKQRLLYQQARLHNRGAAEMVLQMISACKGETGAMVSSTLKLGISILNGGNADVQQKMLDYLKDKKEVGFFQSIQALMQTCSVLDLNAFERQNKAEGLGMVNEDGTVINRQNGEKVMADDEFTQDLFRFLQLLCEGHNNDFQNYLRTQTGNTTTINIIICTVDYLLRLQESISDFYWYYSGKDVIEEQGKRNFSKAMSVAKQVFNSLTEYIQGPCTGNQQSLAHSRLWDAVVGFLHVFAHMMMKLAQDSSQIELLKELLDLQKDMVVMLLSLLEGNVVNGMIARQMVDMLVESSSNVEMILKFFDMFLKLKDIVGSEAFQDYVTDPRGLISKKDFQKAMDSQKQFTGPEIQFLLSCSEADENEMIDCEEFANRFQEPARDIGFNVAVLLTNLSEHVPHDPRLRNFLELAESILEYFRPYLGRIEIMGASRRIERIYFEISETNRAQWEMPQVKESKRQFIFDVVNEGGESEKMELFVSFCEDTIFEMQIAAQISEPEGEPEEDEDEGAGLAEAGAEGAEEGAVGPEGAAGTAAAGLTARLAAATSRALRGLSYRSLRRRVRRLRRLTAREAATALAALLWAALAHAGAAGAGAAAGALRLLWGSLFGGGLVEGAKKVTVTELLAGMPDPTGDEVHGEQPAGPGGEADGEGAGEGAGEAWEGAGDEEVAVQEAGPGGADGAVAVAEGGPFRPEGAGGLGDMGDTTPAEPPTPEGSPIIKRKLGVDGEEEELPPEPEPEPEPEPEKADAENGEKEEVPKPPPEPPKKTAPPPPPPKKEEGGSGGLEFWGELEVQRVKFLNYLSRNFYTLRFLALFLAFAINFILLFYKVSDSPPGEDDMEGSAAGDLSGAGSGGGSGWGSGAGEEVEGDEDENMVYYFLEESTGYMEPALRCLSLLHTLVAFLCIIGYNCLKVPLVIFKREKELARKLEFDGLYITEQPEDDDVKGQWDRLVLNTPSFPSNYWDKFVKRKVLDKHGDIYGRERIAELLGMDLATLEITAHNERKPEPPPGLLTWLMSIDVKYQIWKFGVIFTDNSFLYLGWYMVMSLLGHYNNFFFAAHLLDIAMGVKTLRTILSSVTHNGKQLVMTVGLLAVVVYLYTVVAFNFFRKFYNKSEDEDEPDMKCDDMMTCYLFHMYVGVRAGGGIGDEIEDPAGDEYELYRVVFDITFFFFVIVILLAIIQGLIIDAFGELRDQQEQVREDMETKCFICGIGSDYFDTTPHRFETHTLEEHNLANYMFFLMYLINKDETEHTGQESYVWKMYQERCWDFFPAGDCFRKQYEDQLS

RyR1 [3] = target: T1, RyR1; parameters: RyR1 in skeletal SR membranes; from tissue; host or cells: porcine longissimus dorsi muscle (heavy SR vesicles); method as in PMID 27760856; conditions: skeletal HSR, previous study; cited from earlier work
RyR2 = RyR2 (Sus scrofa, UniProt A0A5G2R1W3); test: FLT-FRET between D-FKBP and A-CaM bound to RyR2 in cardiac SR membranes (dose-response); format: binding, porcine; parameters: RyR1 in skeletal SR membranes, and RyR2 in cardiac SR membranes; from tissue; host or cells: porcine cardiac left ventricle (crude SR vesicles); conditions: RyR2 samples, 30 nM Ca2+
Description: Necessary counter-screens to our pathological RyR1 conditions include evaluating compound effects in healthy conditions and on the cardiac isoform, RyR2. Using the same FRET assay as in HTS, we tested the dose response of key Hits from this screen and the previously HTS-identified RyR1 inhibitor, chloroxine, on healthy (5 mM GSH) and pathological (5 mM GSSG) conditions for both RyR1 in skeletal SR membranes, and RyR2 in cardiac SR membranes.
Skeletal HSR and cardiac CSR (0.4 mg/ml) membranes were independently pre-incubated with 60 nM D-FKBP, for 90 min, at 37 °C, in a solution containing 150 mM KCl, 5 mM GSH, 0.1 mg/mL BSA, 1 µg/mL Aprotinin/Leupeptin, 1 mM DTT and 20 mM PIPES (pH 7.0). To remove unbound D-FKBP, the SR membranes were spun down at 110,000 × g for 20 min, and then resuspended to 1 mg/mL (skeletal HSR) and 2 mg/mL (cardiac CSR) in binding buffer consisting of 150 mM KCl, 5 mM GSSG, 0.1 mg/mL BSA, 1μg/mL Aprotinin/Leupeptin and 20 mM PIPES, pH 7.0. These samples were then incubated with indicated [A-CaM] for 30 min at 22 °C in binding buffer containing 0.065 mM CaCl2 to give 30 nM free Ca^2+ in the presence of 1 mM EGTA (calculated by MaxChelator). This labeled SR sample was applied to the assay plates in 5 μL aliquots using a Multidrop™ Combi reagent dispenser (Thermo Scientific) with a standard-tube. An additional set of the assay plates were loaded with skeletal HSR or cardiac CSR labeled with only D-FKBP (no added A-CaM).
FLT measurements were conducted in a top-read FLT-PR designed and built by Fluorescence Innovations, Inc[33]. AF488 donor fluorescence was excited with a 473-nm microchip laser from Concepts Research Corporation (Belgium, WI), and emission was acquired with 490-nm long-pass and 517/20-nm band-pass filters (Semrock, Rochester, NY).
FLT waveforms for each well were fit based on a one-exponential decay function using least-squares minimization global-analysis software (Fluorescence Innovations, Inc.), as previously described[19],[33]. FRET efficiency (E) was determined as the fractional decrease of donor FLT (τD), due to the presence of acceptor fluorophore (τDA), using the following equation:1 E=1−τDA/τD,

RyR1 [4] = target: T1, RyR1; test: [3H]ryanodine binding to skeletal SR vesicles; format: biochemical, porcine; parameters: RyR1 in skeletal SR membranes, and RyR2 in cardiac SR membranes; from tissue; host or cells: porcine longissimus dorsi muscle (heavy SR vesicles)
Description: To evaluate the functional impact of compounds identified through our FRET-based screen, we first used [^3H]ryanodine binding assays. The level of [^3H]ryanodine binding to RyRs in SR membranes is a well-established index of the RyR channel activity. Given the role of CaM binding in our FRET readout, we investigated whether CaM influences the functional effect of the Hit compounds by carrying out [^3H]ryanodine binding assays in the absence and presence of CaM (300 nM).
Crude sarcoplasmic reticulum (CSR) vesicles were isolated from porcine longissimus dorsi muscle and porcine cardiac left ventricle tissue by differential centrifugation of homogenized tissue. HSR vesicles, which are enriched in RyR1, were isolated by fractionation of crude skeletal SR vesicles using a discontinuous sucrose gradient. All vesicles were flash-frozen and stored at −80 °C. Immediately prior to the fluorescence or [^3H]ryanodine binding studies described below, the SR vesicles were stripped of residual endogenous CaM by incubation with a peptide derived from the CaM binding domain of myosin light chain kinase, followed by sedimentation.
In 96-well plates, HSR vesicles (1 mg/ml) and cardiac CSR vesicles (3 mg/mL) were pre-incubated with 0.02% DMSO or Hit compound, with or without 300 nM CaM, for 30 min at 22 °C in a solution containing 150 mM KCl, 5 mM GSSG, 1 µg/mL Aprotinin/Leupeptin, 1 mM EGTA, and 65 µM or 1.02 mM CaCl2 (as determined by MaxChelator to yield 30 nM or 30 μM of free Ca^2+, respectively), 0.1 mg/mL BSA and 20 mM K-PIPES (pH 7.0). Non-specific and maximal [^3H]ryanodine binding to SR were separately assessed by addition of 40 µM non-radioactively labeled ryanodine or 5 mM Adenylyl-imidodiphosphate, respectively. Such control samples were each distributed over 4 wells/plate. Binding of [^3H]ryanodine (10 and 15 nM for cardiac and skeletal SR, respectively) was determined after a 3-h incubation (37 °C) and filtration through grade GF/B Glass Microfiber filters (Brandel Inc., Gaithersburg, MD, US) using a Brandel Harvester. In 4 mL of Ecolite Scintillation cocktail (MP biomedicals, Solon, OH, USA), [^3H] on filter was counted using a Beckman LS6000 scintillation counter (Fullerton, CA).

[5] = 10 μM compound, 200 nM [Ca2+]cyto

Structure (SMILES) | Effect on steady-state [Ca2+]t-sys vs control (RyR1 leak) ([1]; 100 μM compound, 200 nM [Ca2+]cyto) | Effect on steady-state [Ca2+]t-sys (RyR1 leak) ([1]; all three concentrations tested (1, 10 and 100 μM), towards level of 1 mM tetracaine) | Reduction of RyR1 Ca2+ leak [1] [%] | Effect on FRET in previous 384-well screen (RyR1 [2]) | Decrease in [3H]ryanodine binding (RyR1 [3]) [%] | Effect on FRET (RyR2) | Effect on steady-state [Ca2+]t-sys vs control (RyR1 leak) ([1]; 1 μM compound, 200 nM [Ca2+]cyto) | Effect on [Ca2+]t-sys relative to RyR blocker tetracaine [1, 5] | Effect on steady-state [Ca2+]t-sys vs control (RyR1 leak) [1, 5] | Maximum decrease in [3H]ryanodine binding (RyR1 [4]; 1 μM compound, 30 μM Ca2+) | Effect on [3H]ryanodine binding (RyR1 [4]; 20 μM compound, 30 nM Ca2+, only in the absence of CaM) | Effect on [3H]ryanodine binding (RyR1 [4]; 30 μM Ca2+, presence and absence of 0.3 μM CaM, 0-20 μM compound) | Decrease in [3H]ryanodine binding (RyR1 [4]; ≤ 10 μM compound, 30 nM Ca2+, with or without CaM) [%]
Oc1c(Cl)cc(Cl)c2cccnc12 [chloroxine] | statistically decreased | progressively reduced | > 50 | increased FRET | 20 | did not alter FRET |  |  |  |  |  |  | 
O=c1c(O)c(-c2cc(O)c(O)c(O)c2)oc2cc(O)cc(O)c12 [myricetin] |  |  | > 50 |  |  |  | decreased | went beyond the effects of 1 mM tetracaine | decreased | ~ 20% | dramatically increased | biphasic effect | > 50
